Laboratory results as given in patent publication US20250154109A1, “SODIUM CHANNEL BLOCKING COMPOUNDS, DERIVATIVES THEREOF, AND METHODS OF THEIR USE” (LATIGO BIOTHERAPEUTICS, INC, priority 2022, published 2025).
Where two headings read alike, the source gives them in different places.

Biological target: human Nav1.8 (Homo sapiens, UniProt Q9Y5Y9)
Experiment: SyncroPatch384PE assay (automated patch clamp)
Assay type: cell-based
Details: human Nav1.8/b3 CHO cells
[1] = inactivated state block (P2 measurement), read-out: P2 IC50
[2] = resting state block (P1 measurement), read-out: P1 IC50

human Nav1.8, sequence (Q9Y5Y9 whole entry): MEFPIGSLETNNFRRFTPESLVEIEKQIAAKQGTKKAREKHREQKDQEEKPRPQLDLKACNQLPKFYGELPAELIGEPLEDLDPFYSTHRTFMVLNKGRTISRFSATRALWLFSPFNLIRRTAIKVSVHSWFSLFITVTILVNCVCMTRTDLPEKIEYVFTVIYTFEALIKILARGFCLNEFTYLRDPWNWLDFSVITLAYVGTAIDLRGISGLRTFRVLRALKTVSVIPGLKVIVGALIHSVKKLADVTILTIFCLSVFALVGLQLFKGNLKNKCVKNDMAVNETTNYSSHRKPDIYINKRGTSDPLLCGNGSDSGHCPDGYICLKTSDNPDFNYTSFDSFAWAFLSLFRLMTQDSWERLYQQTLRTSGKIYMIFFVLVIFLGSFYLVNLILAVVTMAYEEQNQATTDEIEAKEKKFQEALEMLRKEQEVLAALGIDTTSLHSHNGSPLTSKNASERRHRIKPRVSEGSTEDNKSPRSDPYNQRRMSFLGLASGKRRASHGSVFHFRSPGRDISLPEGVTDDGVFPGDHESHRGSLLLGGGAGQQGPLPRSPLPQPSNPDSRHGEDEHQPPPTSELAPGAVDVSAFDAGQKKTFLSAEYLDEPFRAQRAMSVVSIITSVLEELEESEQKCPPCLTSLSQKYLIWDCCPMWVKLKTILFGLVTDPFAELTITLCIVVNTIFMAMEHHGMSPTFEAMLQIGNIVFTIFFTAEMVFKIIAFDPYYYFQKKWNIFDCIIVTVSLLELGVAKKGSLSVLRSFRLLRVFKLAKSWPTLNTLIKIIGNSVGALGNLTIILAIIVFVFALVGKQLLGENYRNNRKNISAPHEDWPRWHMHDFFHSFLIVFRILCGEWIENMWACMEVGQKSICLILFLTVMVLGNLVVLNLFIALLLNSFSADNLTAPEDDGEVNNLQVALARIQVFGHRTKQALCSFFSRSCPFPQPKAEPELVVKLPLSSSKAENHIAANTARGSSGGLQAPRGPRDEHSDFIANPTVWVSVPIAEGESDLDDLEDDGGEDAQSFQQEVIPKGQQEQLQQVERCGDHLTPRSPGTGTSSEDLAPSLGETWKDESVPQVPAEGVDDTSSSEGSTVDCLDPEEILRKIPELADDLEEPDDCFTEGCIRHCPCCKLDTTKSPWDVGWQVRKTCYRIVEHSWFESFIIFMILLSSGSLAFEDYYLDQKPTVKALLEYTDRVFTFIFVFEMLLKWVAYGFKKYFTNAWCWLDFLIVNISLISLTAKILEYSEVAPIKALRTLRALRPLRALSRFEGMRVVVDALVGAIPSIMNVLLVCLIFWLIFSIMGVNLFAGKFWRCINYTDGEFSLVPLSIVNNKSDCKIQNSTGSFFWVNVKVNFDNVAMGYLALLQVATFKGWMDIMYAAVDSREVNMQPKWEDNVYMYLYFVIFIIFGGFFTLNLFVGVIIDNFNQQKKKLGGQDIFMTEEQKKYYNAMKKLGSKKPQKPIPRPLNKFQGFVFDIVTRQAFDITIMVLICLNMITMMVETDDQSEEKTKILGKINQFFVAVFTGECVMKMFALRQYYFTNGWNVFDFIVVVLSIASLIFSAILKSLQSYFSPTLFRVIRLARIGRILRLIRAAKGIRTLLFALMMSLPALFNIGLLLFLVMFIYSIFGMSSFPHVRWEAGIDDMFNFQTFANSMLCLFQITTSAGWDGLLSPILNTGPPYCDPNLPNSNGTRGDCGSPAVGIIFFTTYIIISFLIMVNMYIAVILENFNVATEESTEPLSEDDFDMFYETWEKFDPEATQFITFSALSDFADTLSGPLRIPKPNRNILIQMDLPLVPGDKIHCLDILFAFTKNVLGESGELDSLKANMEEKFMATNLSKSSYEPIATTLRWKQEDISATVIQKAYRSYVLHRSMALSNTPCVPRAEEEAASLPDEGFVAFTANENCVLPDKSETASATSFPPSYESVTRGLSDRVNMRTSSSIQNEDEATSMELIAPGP

SMILES: Cc1nc(N2CCCC(F)(F)CC2)c(C(=O)Nc2cccc(S(C)(=N)=O)c2)cc1Cl (stereo not shown) [Example 15, 5-chloro-2-(4,4-difluoroazepan-1-yl)-6-methyl-N-(3-(S-methylsulfonimidoyl)phenyl)nicotinamide]
- IC50 [1]: ≤ 5 nM
- IC50 [2]: ≤ 5 nM

SMILES: C[S@@](=N)(=O)c1cccc(NC(=O)c2cc(Cl)c(C(F)(F)F)cc2N2CCO[C@@H](C(F)(F)F)C2)c1 [Example 216, 5-chloro-N-(3-((R)—S-methylsulfonimidoyl)phenyl)-4-(trifluoromethyl)-2-((R)-2-(trifluoromethyl)morpholino)benzamide]
- IC50 [1]: 50 to 100 nM
- IC50 [2]: 50 to 100 nM

SMILES: Cc1c(C(N)=O)cnc(N2CCCC(F)(F)CC2)c1C(=O)Nc1cccc([S@](C)(=N)=O)c1 [Example 129, (R)-2-(4,4-difluoroazepan-1-yl)-4-methyl-N3-(3-(S-methylsulfonimidoyl)phenyl)pyridine-3,5-dicarboxamide]
- IC50 [1]: > 200 nM
- IC50 [2]: > 200 nM

SMILES: CNCC(=O)N=[S@](C)(=O)c1cccc(NC(=O)c2c(N3CCCC(F)(F)CC3)ncc(-c3ccc4c(c3)OCCO4)c2C)c1 [Example 48, (R)-2-(4,4-difluoroazepan-1-yl)-5-(2,3-dihydrobenzo[b][1,4]dioxin-6-yl)-4-methyl-N-(3-(S-methyl-N-(methylglycyl)sulfonimidoyl)phenyl)nicotinamide]
- IC50 [1]: ≤ 5 nM
- IC50 [2]: ≤ 5 nM

SMILES: Cc1c(-c2cnn(C)c2)cnc(N2CCCC(F)(F)CC2)c1C(=O)Nc1ccnc([S@](C)(=N)=O)c1 [Example 200, (R)-2-(4,4-difluoroazepan-1-yl)-4-methyl-5-(1-methyl-1H-pyrazol-4-yl)-N-(2-(S-methylsulfonimidoyl)pyridin-4-yl)nicotinamide]
- IC50 [1]: 100 to 200 nM
- IC50 [2]: 100 to 200 nM

SMILES: Cc1c(-c2cnn(C(F)(F)F)c2)cnc(N2CCCC(F)(F)CC2)c1C(=O)Nc1cccc([S@](C)(=N)=O)c1 [Example 176, (R)-2-(4,4-difluoroazepan-1-yl)-4-methyl-N-(3-(S-methylsulfonimidoyl)phenyl)-5-(1-(trifluoromethyl)-1H-pyrazol-4-yl)nicotinamide]
- IC50 [1]: ≤ 5 nM
- IC50 [2]: ≤ 5 nM

SMILES: C[S@](=N)(=O)c1cccc(NC(=O)c2cc(C(F)(F)F)nnc2N2CCCC(F)(F)CC2)c1 [Example 19, (S)-3-(4,4-difluoroazepan-1-yl)-N-(3-(S-methylsulfonimidoyl)phenyl)-6-(trifluoromethyl)pyridazine-4-carboxamide]
- IC50 [1]: 100 to 200 nM
- IC50 [2]: > 200 nM

SMILES: Cc1nc(C(F)(F)F)nc(N2CCCC(F)(F)CC2)c1C(=O)Nc1cccc([S@@](C)(=N)=O)c1 [Example 143, (S)-4-(4,4-difluoroazepan-1-yl)-6-methyl-N-(3-(S-methylsulfonimidoyl)phenyl)-2-(trifluoromethyl)pyrimidine-5-carboxamide]
- IC50 [1]: 50 to 100 nM
- IC50 [2]: 50 to 100 nM

SMILES: CNCC(=O)N=[S@](C)(=O)c1cccc(NC(=O)c2c(N3CCCC(F)(F)CC3)ncc(C#CC3CC3)c2C)c1 [Example 64, (R)-5-(cyclopropylethynyl)-2-(4,4-difluoroazepan-1-yl)-4-methyl-N-(3-(S-methyl-N-(methylglycyl)sulfonimidoyl)phenyl)nicotinamide]
- IC50 [1]: ≤ 5 nM
- IC50 [2]: ≤ 5 nM

SMILES: Cc1c(C#N)c(C#N)nc(N2CCCC(F)(F)CC2)c1C(=O)Nc1cccc([S@](C)(=N)=O)c1 [Example 170, (R)-5,6-dicyano-2-(4,4-difluoroazepan-1-yl)-4-methyl-N-(3-(S-methylsulfonimidoyl)phenyl)nicotinamide]
- IC50 [1]: 5 to 50 nM
- IC50 [2]: 5 to 50 nM

SMILES: Cc1c(Cl)c(C#N)nc(N2CCCC(F)(F)CC2)c1C(=O)Nc1cccc([S@](C)(=N)=O)c1 [Example 171, (R)-5-chloro-6-cyano-2-(4,4-difluoroazepan-1-yl)-4-methyl-N-(3-(S-methylsulfonimidoyl)phenyl)nicotinamide]
- IC50 [1]: ≤ 5 nM
- IC50 [2]: ≤ 5 nM

SMILES: Cc1cc(C#N)nc(N2CCCC(F)(F)CC2)c1C(=O)Nc1ccnc([S@](C)(=N)=O)c1 [Example 204, (R)-6-cyano-2-(4,4-difluoroazepan-1-yl)-4-methyl-N-(2-(S-methylsulfonimidoyl)pyridin-4-yl)nicotinamide]
- IC50 [1]: 5 to 50 nM
- IC50 [2]: 5 to 50 nM

SMILES: CC#Cc1cnc(N2CCCC(F)(F)CC2)c(C(=O)Nc2cccc([S@](C)(=N)=O)c2)c1C [Example 127, (R)-2-(4,4-difluoroazepan-1-yl)-4-methyl-N-(3-(S-methylsulfonimidoyl)phenyl)-5-(prop-1-yn-1-yl)nicotinamide]
- IC50 [1]: ≤ 5 nM
- IC50 [2]: ≤ 5 nM

SMILES: Cc1c(-c2cnn(C)c2)ccc(N2CCCC(F)(F)CC2)c1C(=O)Nc1cccc([S@](C)(=N)=O)c1 [Example 78, (R)-6-(4,4-difluoroazepan-1-yl)-2-methyl-3-(1-methyl-1H-pyrazol-4-yl)-N-(3-(S-methylsulfonimidoyl)phenyl)benzamide]
- IC50 [1]: > 200 nM
- IC50 [2]: > 200 nM

SMILES: O=C(Nc1cc[nH]c(=O)c1)c1nnc(C(F)(F)F)cc1N1CCCCCC1 [Example 36, 4-(Azepan-1-yl)-N-(2-oxo-1,2-dihydropyridin-4-yl)-6-(trifluoromethyl)pyridazine-3-carboxamide]
- IC50 [1]: > 200 nM
- IC50 [2]: > 200 nM

SMILES: Cc1c(-c2cnn(C)c2)nnc(N2CCCC(F)(F)CC2)c1C(=O)Nc1cccc([S@](C)(=N)=O)c1 [Example 71, (R)-3-(4,4-difluoroazepan-1-yl)-5-methyl-6-(1-methyl-1H-pyrazol-4-yl)-N-(3-(S-methylsulfonimidoyl)phenyl)pyridazine-4-carboxamide]
- IC50 [1]: > 200 nM
- IC50 [2]: > 200 nM

SMILES: Cc1c(C(F)(F)F)ncc(N2CCCC(F)(F)CC2)c1C(=O)Nc1cccc([S@](C)(=N)=O)c1 [Example 197, (R)-5-(4,4-difluoroazepan-1-yl)-3-methyl-N-(3-(S-methylsulfonimidoyl)phenyl)-2-(trifluoromethyl)isonicotinamide]
- IC50 [1]: 50 to 100 nM
- IC50 [2]: 50 to 100 nM

SMILES: Cc1c(C(F)(F)F)nnc(N2CCCCCC2)c1C(=O)N=S(C)(=O)c1cccc(N)c1 (stereo not shown) [Example 8, N-((3-aminophenyl)(methyl)(oxo)-λ^6-sulfaneylidene)-3-(azepan-1-yl)-5-methyl-6-(trifluoromethyl)pyridazine-4-carboxamide]
- IC50 [1]: > 200 nM
- IC50 [2]: > 200 nM

SMILES: CNCC(=O)N=[S@](C)(=O)c1cccc(NC(=O)c2c(N3CCCC(F)(F)CC3)ncc(-c3cnn(C)c3)c2C)c1 [Example 46, (R)-2-(4,4-difluoroazepan-1-yl)-4-methyl-5-(1-methyl-1H-pyrazol-4-yl)-N-(3-(S-methyl-N-(methylglycyl)sulfonimidoyl)phenyl)nicotinamide]
- IC50 [1]: 5 to 50 nM
- IC50 [2]: 5 to 50 nM

SMILES: Cc1c(C2CNC2)cnc(N2CCCC(F)(F)CC2)c1C(=O)Nc1cccc(S(C)(=N)=O)c1 (stereo not shown) [Example 173, 5-(azetidin-3-yl)-2-(4,4-difluoroazepan-1-yl)-4-methyl-N-(3-(S-methylsulfonimidoyl)phenyl)nicotinamide]
- IC50 [1]: 100 to 200 nM
- IC50 [2]: > 200 nM

SMILES: CNCC(=O)N=[S@](C)(=O)c1cccc(NC(=O)c2c(N3CCCC(F)(F)CC3)ncc(-c3ccc(C#N)cc3)c2C)c1 [Example 50, (R)-5-(4-cyanophenyl)-2-(4,4-difluoroazepan-1-yl)-4-methyl-N-(3-(S-methyl-N-(methylglycyl)sulfonimidoyl)phenyl)nicotinamide]
- IC50 [1]: ≤ 5 nM
- IC50 [2]: ≤ 5 nM

SMILES: COc1ccc(-c2nnc(N3CCCC(F)(F)CC3)c(C(=O)Nc3cccc([S@](C)(=N)=O)c3)c2C)cc1 (single isomer, unassigned) [Example 138]
- IC50 [1]: 100 to 200 nM
- IC50 [2]: > 200 nM

SMILES: Cc1c(C(F)(F)F)nnc(N2CCCC(F)(F)CC2)c1C(=O)Nc1cccc([S@@](C)(=N)=O)c1 [Example 29, (S)-3-(4,4-Difluoroazepan-1-yl)-5-methyl-N-(3-(S-methylsulfonimidoyl)phenyl)-6-(trifluoromethyl)pyridazine-4-carboxamide]
- IC50 [1]: 5 to 50 nM
- IC50 [2]: 5 to 50 nM

SMILES: Cc1c(C(F)(F)F)nnc(N2CCCC(F)(F)CC2)c1C(=O)Nc1cccc([S@@](C)(=O)=NC(=O)[C@@H](C)N)c1 [Example 183, N-(3-((R)-N-(D-alanyl)-S-methylsulfonimidoyl)phenyl)-3-(4,4-difluoroazepan-1-yl)-5-methyl-6-(trifluoromethyl)pyridazine-4-carboxamide]
- IC50 [1]: ≤ 5 nM
- IC50 [2]: ≤ 5 nM

SMILES: Cc1c(-c2ccccc2)nnc(N2CCCC(F)(F)CC2)c1C(=O)Nc1cccc([S@@](C)(=N)=O)c1 [Example 117, (S)-3-(4,4-difluoroazepan-1-yl)-5-methyl-N-(3-(S-methylsulfonimidoyl)phenyl)-6-phenylpyridazine-4-carboxamide]
- IC50 [1]: 50 to 100 nM
- IC50 [2]: 100 to 200 nM

SMILES: Cc1cc(C(F)(F)F)nc(N2CCCC(F)(F)CC2)c1C(=O)Nc1cccc([S@@](C)(=N)=O)c1 [Example 34, (S)-2-(4,4-Difluoroazepan-1-yl)-4-methyl-N-(3-(S-methylsulfonimidoyl)phenyl)-6-(trifluoromethyl)nicotinamide]
- IC50 [1]: ≤ 5 nM
- IC50 [2]: ≤ 5 nM

SMILES: CNCC(=O)N=[S@@](C)(=O)c1cccc(NC(=O)c2c(N3CCCC(F)(F)CC3)nnc(C(F)(F)F)c2C)c1 [Example 44, (S)-3-(4,4-difluoroazepan-1-yl)-5-methyl-N-(3-(S-methyl-N-(methylglycyl)sulfonimidoyl)phenyl)-6-(trifluoromethyl)pyridazine-4-carboxamide]
- IC50 [1]: 5 to 50 nM
- IC50 [2]: 5 to 50 nM

SMILES: Cc1nc(N2CCC3(CC2)CC3)c(C(=O)Nc2cccc([S@](C)(=N)=O)c2)cc1Cl [Example 26, (R)-5-Chloro-6-methyl-N-(3-(S-methylsulfonimidoyl)phenyl)-2-(6-azaspiro[2.5]octan-6-yl)nicotinamide]
- IC50 [1]: ≤ 5 nM
- IC50 [2]: ≤ 5 nM

SMILES: CNCC(=O)N=[S@](C)(=O)c1cccc(NC(=O)c2c(N3CCCC(F)(F)CC3)ncc(-c3ccc(Cl)cc3)c2C)c1 [Example 68, (R)-5-(4-chlorophenyl)-2-(4,4-difluoroazepan-1-yl)-4-methyl-N-(3-(S-methyl-N-(methylglycyl)sulfonimidoyl)phenyl)nicotinamide]
- IC50 [1]: ≤ 5 nM
- IC50 [2]: ≤ 5 nM
